{"source": "paper PMC5476731", "about": "“Molecular Basis of N,N-Diethyl-3-Methylbenzamide (DEET) in Repelling the Common Bed Bug, Cimex lectularius” (Frontiers in Physiology, 2017)", "experiment_in_all_cases": "two-electrode voltage clamp, Xenopus oocytes", "assay_type_in_all_cases": "cell-based, Cimex lectularius", "key": {"[1]": {"tested_on": "T1, OR37/ORCO", "T1 construct": "cRNA (pT7Ts vector) co-injected with ORCO into Xenopus laevis oocytes; with Odorant receptor coreceptor", "conditions": "agonist; co-expressed ORCO; -80 mV; pH 7.6 Ringer; text b25 prints 6.5 × 10^−6 (discrepant)"}, "[2]": {"tested_on": "T2, OR36/ORCO", "T2 construct": "cRNA (pT7Ts vector) co-injected with ORCO into Xenopus laevis oocytes; with Odorant receptor coreceptor", "conditions": "agonist; co-expressed ORCO; -80 mV; pH 7.6 Ringer; text rounds to 7.1 × 10^−6"}, "[3]": {"tested_on": "T3, OR20/ORCO", "T3 construct": "cRNA (pT7Ts vector) co-injected with ORCO into Xenopus laevis oocytes; with Odorant receptor coreceptor", "conditions": "agonist; co-expressed ORCO; -80 mV; pH 7.6 Ringer; text rounds to 7.5 × 10^−6"}}, "data": [{"smiles": "CCN(CC)C(=O)c1cccc(C)c1", "note": "[DEET, N,N-Diethyl-3-Methylbenzamide]", "values": [{"measurement": "EC50", "setting": "[1]", "result": "6.684 × 10^−6 v/v"}, {"measurement": "EC50", "setting": "[2]", "result": "7.096 × 10^−6 v/v"}, {"measurement": "EC50", "setting": "[3]", "result": "7.468 × 10^−6 v/v"}]}]}
